According to ChEMBL document CHEMBL4680259, “Discovery of bazedoxifene analogues targeting glycoprotein 130” (Eur J Med Chem, 2020):
The source made the active and inactive calls. The rule behind the calls is not given here.

Columns and labels:
[1] = tested on: A549; assay: Antiproliferative activity against human A549 cells assessed as cell growth inhibition measured after 24 hrs by MTT assay; assay type: functional, cell-based; conditions: A549, 24 h
[2] = AUC (0 to infinity) in rat at 0.5 mg/kg, iv; assay type: ADME, organism-based; parameters: route intravenous, time infinity, dose 0.5 mg/kg; conditions: in vivo
[3] = biological target: T1, Interleukin-6 receptor subunit beta (Homo sapiens) (UniProt P40189); assay: Inhibition of GP130 in human A549 cells assessed as reduction in bcl2 protein expression after 24 hrs by Western blot analysis; assay type: cell-based; conditions: dose 3-9 µM
T1 sequence (whole entry): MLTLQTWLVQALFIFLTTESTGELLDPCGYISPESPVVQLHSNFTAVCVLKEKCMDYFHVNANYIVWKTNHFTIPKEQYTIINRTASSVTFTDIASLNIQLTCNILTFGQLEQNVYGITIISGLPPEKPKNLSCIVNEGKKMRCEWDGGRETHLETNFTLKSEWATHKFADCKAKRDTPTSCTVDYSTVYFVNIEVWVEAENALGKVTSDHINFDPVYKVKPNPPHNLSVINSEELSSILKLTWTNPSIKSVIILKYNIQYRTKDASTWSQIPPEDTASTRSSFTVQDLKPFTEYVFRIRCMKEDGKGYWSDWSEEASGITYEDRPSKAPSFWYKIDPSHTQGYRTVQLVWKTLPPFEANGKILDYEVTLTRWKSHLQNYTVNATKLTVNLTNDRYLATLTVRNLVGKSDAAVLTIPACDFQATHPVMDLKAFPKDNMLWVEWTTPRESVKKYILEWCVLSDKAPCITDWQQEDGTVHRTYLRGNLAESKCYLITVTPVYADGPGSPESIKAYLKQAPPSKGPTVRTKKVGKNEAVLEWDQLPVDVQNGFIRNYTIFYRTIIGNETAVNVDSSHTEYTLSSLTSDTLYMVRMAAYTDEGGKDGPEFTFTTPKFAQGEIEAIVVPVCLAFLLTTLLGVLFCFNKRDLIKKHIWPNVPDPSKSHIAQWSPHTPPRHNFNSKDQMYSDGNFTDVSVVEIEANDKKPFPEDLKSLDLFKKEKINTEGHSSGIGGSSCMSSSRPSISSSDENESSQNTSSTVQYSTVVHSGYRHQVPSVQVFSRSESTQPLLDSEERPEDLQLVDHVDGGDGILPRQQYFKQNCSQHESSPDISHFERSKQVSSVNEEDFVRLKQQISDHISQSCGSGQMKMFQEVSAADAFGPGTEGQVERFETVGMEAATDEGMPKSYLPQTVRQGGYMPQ

[4] = biological target: T2, Estrogen receptor (Homo sapiens, UniProt P03372); assay: Binding affinity to ERalpha (unknown origin) by SPR assay
T2 sequence (P03372 whole entry): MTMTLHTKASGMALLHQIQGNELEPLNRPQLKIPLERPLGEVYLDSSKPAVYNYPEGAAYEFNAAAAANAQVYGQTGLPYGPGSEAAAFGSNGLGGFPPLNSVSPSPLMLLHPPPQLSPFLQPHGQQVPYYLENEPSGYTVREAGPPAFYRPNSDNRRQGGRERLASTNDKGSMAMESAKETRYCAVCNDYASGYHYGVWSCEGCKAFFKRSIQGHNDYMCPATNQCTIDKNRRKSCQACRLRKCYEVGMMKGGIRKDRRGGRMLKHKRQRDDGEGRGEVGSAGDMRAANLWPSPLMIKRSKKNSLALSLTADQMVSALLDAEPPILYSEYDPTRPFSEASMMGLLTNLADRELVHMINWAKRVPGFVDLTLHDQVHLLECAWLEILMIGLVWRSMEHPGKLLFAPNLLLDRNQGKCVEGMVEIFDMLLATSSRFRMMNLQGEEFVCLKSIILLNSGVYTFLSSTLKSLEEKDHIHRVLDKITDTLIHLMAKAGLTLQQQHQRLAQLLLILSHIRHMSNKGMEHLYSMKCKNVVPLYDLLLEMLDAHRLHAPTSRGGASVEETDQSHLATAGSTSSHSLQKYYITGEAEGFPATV

[5] = AUC (0 to infinity) in rat at 5 mg/kg, ig; assay type: ADME, organism-based; parameters: route […], time infinity, dose 5 mg/kg; conditions: in vivo, po
[6] = tested on: A549; assay: Induction of apoptosis in human A549 cells assessed as late apoptotic cells at 9 uM incubated for 24 hrs by annexin V-FITC and propidium iodide staining based flow cytometry analysis (reference value: 1.4 %); assay type: functional
[7] = Bioavilability in rat at 5 mg/kg, ig; assay type: ADME, organism-based; conditions: in vivo, po
[8] = Toxicity in nude mouse xenografted with human A549 cells assessed as effect on body weight at 10 to 20 mg/kg, ip administered daily for 21 days and measured every 2 or 3 days; assay type: organism-based; conditions: in vivo, 504 h, dose 10-20 mg/kg, time 21 day
[9] = tested on: A549; assay: Induction of apoptosis in human A549 cells assessed as viable cells at 9 uM incubated for 24 hrs by annexin V-FITC and propidium iodide staining based flow cytometry analysis (reference value: 97.7 %); assay type: functional; conditions: read-out: Activity
[10] = tested on: A549; assay: Induction of apoptosis in human A549 cells assessed as increase in cleaved caspase-7 level at 3 to 9 uM incubated for 24 hrs by Western blot analysis; assay type: functional, cell-based; conditions: dose 3-9 µM
[11] = biological target: T1, Interleukin-6 receptor subunit beta (Homo sapiens); assay: Inhibition of GP130 in human A549 cells assessed as reduction in cyclin-D1 protein expression after 24 hrs by Western blot analysis; assay type: cell-based; conditions: dose 3-9 µM
[12] = Acute toxicity in ICR mouse assessed as abnormal behaviour at 120 mg/kg measured after 2 weeks; assay type: organism-based; conditions: in vivo, 336 h
[13] = tested on: A549; assay: Induction of apoptosis in human A549 cells assessed as early apoptotic cells at 9 uM incubated for 24 hrs by annexin V-FITC and propidium iodide staining based flow cytometry analysis (reference value: 0.5 %); assay type: functional
[14] = biological target: T1, Interleukin-6 receptor subunit beta (Homo sapiens); assay: Binding affinity to immobilized GP130 (unknown origin) assessed as response unit at 20 uM by SPR analysis
[15] = biological target: T3, Interleukin-6 receptor subunit beta (Homo sapiens, UniProt P40189); assay: Binding affinity to immobilized GP130 (unknown origin) by SPR analysis
T3 sequence (P40189 whole entry): T1 sequence (whole entry)

[16] = tested on: A549; assay: Antimigratory activity against human A549 cells assessed as reduction in cell migration measured after 24 hrs by scratch wound healing assay; assay type: functional, cell-based; conditions: dose 3-6 µM
[17] = tested on: A549; assay: Induction of ROS generation in human A549 cells assessed as fold increase in ROS level at 9 uM after 24 hrs by DCFH-DA staining based flow cytometric analysis relative to control; assay type: functional
[18] = Volume of distribution in rat at 5 mg/kg, ig; assay type: ADME, organism-based; conditions: in vivo, po
[19] = tested on: A549; assay: Induction of apoptosis in human A549 cells assessed as viable cells at 3 uM incubated for 24 hrs by annexin V-FITC and propidium iodide staining based flow cytometry analysis (reference value: 97.7 %); assay type: functional; conditions: read-out: Activity
[20] = biological target: T1, Interleukin-6 receptor subunit beta (Homo sapiens); assay: Inhibition of GP130 in human A549 cells assessed as reduction in STAT3 dimer DNA binding activity in nuclear extract in presence of hSIE probe at 3 to 9 uM after 24 hrs by EMSA analysis; assay type: subcellular; conditions: Nucleus, dose 3-9 µM
[21] = Clearance in rat at 5 mg/kg, ig; assay type: ADME, organism-based; conditions: in vivo, po
[22] = tested on: A549; assay: Antitumor activity against human A549 cells xenografted in nude mouse assessed as decrease in tumor weight at 10 mg/kg, ip administered daily for 21 days and measured every 2 to 3 days; assay type: functional; conditions: 504 h, time 21 day

Structure (SMILES): NC(=O)N1N=C(c2ccc(C(F)(F)F)cc2)CC1c1cn(Cc2ccc(OCCN3CCCCCC3)cc2)c2ccc(Br)cc12 (configuration not stated)
- IC50 [1]: 4.46 µM
- AUC(0-inf) [2]: 585 ng·h/mL
- inhibition [3]: Dose-dependent effect
- Kd [4]: 47.2 µM
- AUC [5]: 329.9 ng·h/mL
- Activity [6]: 33%
- bioavailability [7]: 5.6%
- Activity [8]: Non-Toxic
- viability at 9 µM [9]: 60.6%
- Activity [10]: Active
- inhibition [11]: Dose-dependent effect
- Activity [12]: Non-Toxic
- Activity [13]: 3.1%
- Activity [14]: 28.3 RU
- Kd [15]: 3.8 µM
- Activity [16]: Dose-dependent effect
- fold change (FC) [17]: 6.28
- Vd [18]: 12.6 L/kg
- viability at 3 µM [19]: 96.3%
- inhibition [20]: Active
- CL [21]: 14.8 mL/min/kg
- inhibition in vivo at 10 mg/kg [22]: 27.1%
